Measured values reported in PubChem BioAssay (NCI).
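The compound was tested at five concentrations on cells cultured in 96-well plates, with a 48-hour exposure period. Abbreviation: GI50, concentration required for 50% inhibition of growth. TGI is the concentration that stops growth completely.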

Experiments:
Assay in all cases: inhibition of tumour cell growth, NCI panel, 48 h
RXF 393 renal = tested on: RXF 393 renal
UACC-62 melanoma = tested on: UACC-62 melanoma
HCT-116 colon = tested on: HCT-116 colon
OVCAR-8 ovarian = tested on: OVCAR-8 ovarian
NCI-H23 lung = tested on: NCI-H23 lung
HS 578T breast = tested on: HS 578T breast
OVCAR-4 ovarian = tested on: OVCAR-4 ovarian
SF-539 CNS = tested on: SF-539 CNS
HCT-15 colon = tested on: HCT-15 colon
NCI/ADR-RES ovarian = tested on: NCI/ADR-RES ovarian
SK-MEL-5 melanoma = tested on: SK-MEL-5 melanoma
NCI-H226 lung = tested on: NCI-H226 lung
HOP-62 NSCLC = tested on: HOP-62 NSCLC
UO-31 renal = tested on: UO-31 renal
CAKI-1 renal = tested on: CAKI-1 renal
U251 CNS = tested on: U251 CNS
SNB-19 CNS = tested on: SNB-19 CNS
SF-295 CNS = tested on: SF-295 CNS
OVCAR-3 ovarian = tested on: OVCAR-3 ovarian
SK-MEL-28 melanoma = tested on: SK-MEL-28 melanoma
SW-620 colon = tested on: SW-620 colon
A498 renal = tested on: A498 renal
MCF7 breast = tested on: MCF7 breast
CCRF-CEM leukemia = tested on: CCRF-CEM leukemia
PC-3 prostate = tested on: PC-3 prostate
MDA-MB-231 breast = tested on: MDA-MB-231 breast
MOLT-4 leukemia = tested on: MOLT-4 leukemia
TK-10 renal = tested on: TK-10 renal
IGROV1 ovarian = tested on: IGROV1 ovarian
KM12 colon = tested on: KM12 colon
EKVX NSCLC = tested on: EKVX NSCLC
RPMI-8226 leukemia = tested on: RPMI-8226 leukemia
NCI-H460 lung = tested on: NCI-H460 lung
COLO 205 colon = tested on: COLO 205 colon
DU-145 prostate = tested on: DU-145 prostate
M14 melanoma = tested on: M14 melanoma
HOP-92 NSCLC = tested on: HOP-92 NSCLC
K-562 leukemia = tested on: K-562 leukemia
UACC-257 melanoma = tested on: UACC-257 melanoma
SR leukemia = tested on: SR leukemia
OVCAR-5 ovarian = tested on: OVCAR-5 ovarian
A549 NSCLC = tested on: A549 NSCLC
SN12C renal = tested on: SN12C renal
SK-MEL-2 melanoma = tested on: SK-MEL-2 melanoma
HL-60(TB) leukemia = tested on: HL-60(TB) leukemia
HCC-2998 colon = tested on: HCC-2998 colon
LOX IMVI melanoma = tested on: LOX IMVI melanoma
786-0 renal = tested on: 786-0 renal
MDA-MB-435 = tested on: MDA-MB-435
SF-268 CNS = tested on: SF-268 CNS
BT-549 breast = tested on: BT-549 breast
ACHN renal = tested on: ACHN renal
NCI-H522 lung = tested on: NCI-H522 lung
SK-OV-3 ovarian = tested on: SK-OV-3 ovarian

SMILES: O[C@H]1C=C2[C@H](C[C@@H]1O)CN1C[C@H]2c2cc3c(cc21)OCO3
- GI50 (RXF 393 renal): 50.3 µM
- TGI (RXF 393 renal): > 100 µM
- GI50 (UACC-62 melanoma): 22.1 µM
- TGI (UACC-62 melanoma): 96.2 µM
- GI50 (HCT-116 colon): 21.6 µM
- TGI (HCT-116 colon): > 100 µM
- GI50 (OVCAR-8 ovarian): 30.2 µM
- TGI (OVCAR-8 ovarian): > 100 µM
- GI50 (NCI-H23 lung): 29.3 µM
- TGI (NCI-H23 lung): 96.6 µM
- GI50 (HS 578T breast): 79.9 µM
- TGI (HS 578T breast): > 100 µM
- GI50 (OVCAR-4 ovarian): 32.7 µM
- TGI (OVCAR-4 ovarian): 73 µM
- GI50 (SF-539 CNS): 22.4 µM
- TGI (SF-539 CNS): 80.2 µM
- GI50 (HCT-15 colon): 30.1 µM
- TGI (HCT-15 colon): > 100 µM
- GI50 (NCI/ADR-RES ovarian): 70.5 µM
- TGI (NCI/ADR-RES ovarian): > 100 µM
- GI50 (SK-MEL-5 melanoma): 29.4 µM
- TGI (SK-MEL-5 melanoma): > 100 µM
- GI50 (NCI-H226 lung): 22.1 µM
- TGI (NCI-H226 lung): 70.3 µM
- GI50 (HOP-62 NSCLC): 30.5 µM
- TGI (HOP-62 NSCLC): > 100 µM
- GI50 (UO-31 renal): 61.2 µM
- TGI (UO-31 renal): > 100 µM
- GI50 (CAKI-1 renal): 23.5 µM
- TGI (CAKI-1 renal): 61.1 µM
- GI50 (U251 CNS): 27.6 µM
- TGI (U251 CNS): 94.1 µM
- GI50 (SNB-19 CNS): 24.9 µM
- TGI (SNB-19 CNS): > 100 µM
- GI50 (SF-295 CNS): 15.1 µM
- TGI (SF-295 CNS): 67.2 µM
- GI50 (OVCAR-3 ovarian): 42.1 µM
- TGI (OVCAR-3 ovarian): 84.6 µM
- GI50 (SK-MEL-28 melanoma): 19 µM
- TGI (SK-MEL-28 melanoma): 87.7 µM
- GI50 (SW-620 colon): 49.1 µM
- TGI (SW-620 colon): > 100 µM
- GI50 (A498 renal): 81.8 µM
- TGI (A498 renal): > 100 µM
- GI50 (MCF7 breast): 28.8 µM
- TGI (MCF7 breast): > 100 µM
- GI50 (CCRF-CEM leukemia): > 100 µM
- TGI (CCRF-CEM leukemia): > 100 µM
- GI50 (PC-3 prostate): 49.1 µM
- TGI (PC-3 prostate): > 100 µM
- GI50 (MDA-MB-231 breast): 33 µM
- TGI (MDA-MB-231 breast): > 100 µM
- GI50 (MOLT-4 leukemia): > 100 µM
- TGI (MOLT-4 leukemia): > 100 µM
- GI50 (TK-10 renal): 20.3 µM
- TGI (TK-10 renal): 76.6 µM
- GI50 (IGROV1 ovarian): 62 µM
- TGI (IGROV1 ovarian): > 100 µM
- GI50 (KM12 colon): 23.4 µM
- TGI (KM12 colon): > 100 µM
- GI50 (EKVX NSCLC): 39.6 µM
- TGI (EKVX NSCLC): > 100 µM
- GI50 (RPMI-8226 leukemia): 35.8 µM
- TGI (RPMI-8226 leukemia): > 100 µM
- GI50 (NCI-H460 lung): 21.7 µM
- TGI (NCI-H460 lung): > 100 µM
- GI50 (COLO 205 colon): 21.4 µM
- TGI (COLO 205 colon): > 100 µM
- GI50 (DU-145 prostate): 19 µM
- TGI (DU-145 prostate): > 100 µM
- GI50 (M14 melanoma): 24.9 µM
- TGI (M14 melanoma): > 100 µM
- GI50 (HOP-92 NSCLC): 83.1 µM
- TGI (HOP-92 NSCLC): > 100 µM
- GI50 (K-562 leukemia): 49.9 µM
- TGI (K-562 leukemia): > 100 µM
- GI50 (UACC-257 melanoma): 41.6 µM
- TGI (UACC-257 melanoma): > 100 µM
- GI50 (SR leukemia): 41 µM
- TGI (SR leukemia): > 100 µM
- GI50 (OVCAR-5 ovarian): 30.2 µM
- TGI (OVCAR-5 ovarian): > 100 µM
- GI50 (A549 NSCLC): 28.2 µM
- TGI (A549 NSCLC): 88.8 µM
- GI50 (SN12C renal): 18 µM
- TGI (SN12C renal): 58.9 µM
- GI50 (SK-MEL-2 melanoma): 99.5 µM
- TGI (SK-MEL-2 melanoma): > 100 µM
- GI50 (HL-60(TB) leukemia): 23.3 µM
- TGI (HL-60(TB) leukemia): 87.5 µM
- GI50 (HCC-2998 colon): 20.4 µM
- TGI (HCC-2998 colon): 56 µM
- GI50 (LOX IMVI melanoma): 18.7 µM
- TGI (LOX IMVI melanoma): 55.5 µM
- GI50 (786-0 renal): 25.5 µM
- TGI (786-0 renal): > 100 µM
- GI50 (MDA-MB-435): 20.1 µM
- TGI (MDA-MB-435): 90.4 µM
- GI50 (SF-268 CNS): 25.4 µM
- TGI (SF-268 CNS): 86.5 µM
- GI50 (BT-549 breast): 37.8 µM
- TGI (BT-549 breast): > 100 µM
- GI50 (ACHN renal): 8.92 µM
- TGI (ACHN renal): 36.3 µM
- GI50 (NCI-H522 lung): 94.5 µM
- TGI (NCI-H522 lung): > 100 µM
- GI50 (SK-OV-3 ovarian): 6.15 µM
- TGI (SK-OV-3 ovarian): 51.1 µM
